Assay results: patent US6387329B1, “Use of an array of polymeric sensors of varying thickness for detecting analytes in fluids” (California Institute of Technology, priority 1998, dated 2002)

Tested on: cytochrome P-450 aniline p-hydroxylation
Assay: inhibitory action of alcohols on cytochrome P-450 aniline p-hydroxylation (data of Cohen and Mannering)
Assay type: biochemical
Conditions: versus the electronic nose QSAR and another QSAR on the cytochrome P-450 system
Excerpt: To test the ability of the “electronic nose” to identify molecules of interest having a particular biological activity selected from a library of molecules of interest, a quantitative structure-activity relationship (QSAR) was used to predict the inhibitory action of a series of alcohols on cytochrome P-450 aniline p-hydroxylation.
The values are expressed as PI50, where I50 is the concentration of the alcohol (in mM) at which the activity of the enzyme is 50% inhibited, and PI50 is the negative logarithm of I50. More positive numbers correspond to more strongly inhibiting alcohols.

activity compared with QSAR prediction: higher activity than is predicted
SMILES: OCc1ccccc1 [benzyl alcohol]
